Measured values reported in patent publication US10703784B2, “Antigens and epitopes derived from Mycobacterium tuberculosis” (priority 2011, dated 2020).
Several values for one entry are separate records, joined by “and”; a condition that tells them apart may be missing. Identical values can stand only once.

B1: Rv3615c: MTB antigen functionally linked to Esx-1 (Millington et al., 2011); single antigen, not part of an antigenic island (protein, UniProt P9WJD7 2-103, looked up)
ESX-1 secretion-associated …: TENLTVQPERLGVLASHHDNAAVDASSGVEAAAGLGESVAITHGPYCSQFNDTLNVYLTAHNALGSSLHTAGVDLAKSLRIAAKIYSEADEAWRKAIDGLFT

tested on: PBMCs from LTBI donors (IFN-γ production); format: cell-based, human; settings: not given

Row | Molecule | SFC
1 | HTVLVATNFFGINTI | 331.7

same assay, conditions: fraction of 28 LTBI donors responding to epitopes of the antigen, ex vivo IFN-γ ELISPOT

Row | Molecule | Resp. freq. [%]
2 | Rv0289: MTB protein, novel CD4 T cell antigen; Cell wall and cell processes, Island 1, Esx-3 | 29
3 | Rv1243c: MTB protein, novel CD4 T cell antigen; PE/PPE | 11
4 | Rv2853: MTB protein, novel CD4 T cell antigen; PE/PPE | 11
5 | Rv3022c: MTB protein, novel CD4 T cell antigen; PE/PPE, Island 2 | 18

same assay, conditions: individual MTB epitope peptide; one value per responding LTBI donor

Row | Molecule | SFC
6 | AAAQASAAAAAYEAA | 20.0
7 | AAFDYADGAAEDELS | 21.7
8 | AAHAGEYGQMVTLRG | 23.3
9 | AAVIVGSGRIASLYV | 23.3
10 | ADKNPLFLDEQLTRA | 45.0
11 | ADVLTMKAVRAATAL | 41.7
12 | AELFRLQTEFVKLQE | 85.0
13 | AGAMGAYAAAEAANA | 111.7
14 | AGGFGGAGAGIANFL | 20.0
15 | AGISSLIIDPNPMFV | 88.3
16 | AGTLSTFFGVPLVLT | 21.7
17 | AGYPAELAYFEVLHE | 23.3
18 | AHESLCFAGANLIPL | 25.0
19 | AHLIHFAAANLRNPG | 30.0
20 | ALEMFYDDDADLSII | 25.0
21 | ALLWLADQVDAALEK | 48.3
22 | ALPRLLRRLVIMGGM | 128.3
23 | ALRILVYSDNVQTRE | 91.7
24 | ALVEEYLRGLRQAAG | 30.0
25 | AMNEAFVAMLGASAD | 31.7
26 | APPNLIRAILRAPVD | 30.0
27 | APVVILAHGFPELAY | 23.3
28 | APWQQVLRNLGIDIG | 96.7

Row | Molecule | SFC
29 | AQEYQALSAQAAAFH | 41.7
30 | AQIIHRITATARHPG | 53.3
31 | AQTSQFVMAMINYED | 26.7
32 | ARFHQQFVQALTASV | 35.0
33 | ARVFLDSVLPALGEE | 38.3
34 | ASMSMAAAASPYVGW | 78.3
35 | ASVGSYAAAEAANAS | 38.3
36 | AVDAVFVGSCTNGRI | 46.7
37 | AVITELIAMLRHHHI | 40.0
38 | AVLEDPYILLVSSKV | 21.7
39 | AVLLEKIVADEEEHI | 26.7 and 28.3
40 | AVSIGILLSLIAPLG | 55.0
41 | AVVVLKRLPDALADG | 25.0
42 | CLGSHLARLELTLLV | 91.7
43 | CRGYDVVILDRYVAS | 21.7
44 | CRRYEVLLIFDEIAT | 65.0
45 | CSEDLLYLSDLDFDV | 33.3
46 | DDIPRVLAEAFHIAA | 31.7
47 | DLDSYLVEITAEVLR | 23.3
48 | DMTKIVGLRARAKAA | 35.0
49 | DPINEFFLANTGRPL | 66.7
50 | DPVKGADEVVAFAEE | 813.3
51 | DSTVITDGDIVNIDV | 31.7

Row | Molecule | SFC
52 | DTEVYLDAASLSPFV | 266.7
53 | DTQSMIVTDHRYVPA | 33.3
54 | DVIHAFWVPEFLFKR | 158.3
55 | DVTIRFRRFFSRLQR | 50.0
56 | EGGNQIVQYLVAQKI | 25.0
57 | EHFGHERYDAFFSLA | 66.7
58 | EHIHRPNTNNVGPII | 65.0
59 | EIYLNTFRHLYGLDC | 25.0
60 | EKMRVAGRIAAGALA | 20.0
61 | ELADLIEFARTVNEE | 43.3
62 | EMLSMLRAMLAPESL | 40.0
63 | ENFFMFIAEEVREYL | 23.3 and 65.0
64 | EPGDIIIDGGNALYT | 35.0
65 | EQMLIDDGILLRKYW | 178.3
66 | ERYVGLYLPFLDMSF | 23.3
67 | ESALFFIGVLIVALL | 55.0
68 | ESGASYAARDALAAA | 45.0
69 | ESVFAATVAELESLI | 36.7
70 | ETLYWLAQPGIRESI | 31.7
71 | EVNIKILIDSLVSAG | 201.7
72 | FFGQNAPAIAAIEAA | 20.0 and 21.7
73 | FLMSVGALIIGWLLQ | 26.7
74 | FRVVISSRFGDIFRG | 20.0

Row | Molecule | SFC
75 | FSLVNFFDAQVGPLS | 43.3
76 | GAYAAAEAANVSAAQ | 176.7
77 | GFTIANHNAAAVGEI | 140.0
78 | GQQYQAMSAQAAAFH | 50.0
79 | GSAENFSVVEALADS | 138.3 and 20.0
80 | GSTINAANAAAALPT | 36.7 and 190.0
81 | HPQQFIYAGSLSALL | 35.0
82 | IGLVLIAVLVFVPRV | 38.3
83 | IGSSIGAANAAAAGS | 45.0
84 | ITPDEGAYAFEALLR | 28.3
85 | KMAPVLRQIYDQMAE | 66.7
86 | LDWFCLFSSAAALTG | 23.3
87 | LLSTRGYITAEKIRS | 35.0
88 | LPLLVPLRAIPLLGN | 20.0
89 | LRLLVIALKHNVILN | 31.7
90 | LTVDAGAYASAEAAN | 31.7 and 58.3
91 | LVAQEAAAAGTPLVT | 23.3
92 | LVLVIDDEPQILRAL | 81.7
93 | LYRPGLVHIYHALTW | 28.3
94 | MAKTIAYDEEARRGL | 38.3 and 56.7
95 | MDYFIRMWNQAALAM | 46.7
96 | NPFPFLRQIIANQQV | 26.7
97 | NRASLMQLISTNVFG | 21.7

Row | Molecule | SFC
98 | PPEVNSARVFAGAGS | 38.3 and 31.7
99 | QAARGIRPLFDDITE | 21.7
100 | QAFRSRFGENFFYIL | 31.7
101 | QAVLTATNFFGINTI | 341.7
102 | QLSAEYASTAAELSG | 26.7
103 | QRPRMLYDYFHQLFA | 141.7
104 | QTLVYKGMLTTPQLK | 40.0
105 | RARQGFRDIEFHPTI | 45.0 and 28.3
106 | RVIEDALRFYFESHE | 141.7
107 | RVLLAGWEQFDEPVD | 101.7
108 | SAAGSYAAAEAANAS | 91.7 and 21.7
109 | SEFNEVFFNDVFVPD | 41.7
110 | SILDMRQLFDGIDLS | 26.7
111 | SLAVKTFEDLFAELG | 23.3
112 | SQVIEAVNLFRANVI | 33.3
113 | TDNGAMIAAFAAQLV | 203.3 and 30.0
114 | TGIFGLVLVICVVLI | 35.0
115 | TVAWTMLGVALSAYE | 50.0 and 25.0
116 | VDVEDGRVIVDEYQR | 20.0
117 | YLAWLSTAAAQAEQA | 145.0 and 100.0

same assay, conditions: result in words

Row | Molecule | recognition by LTBI donors
118 | B1 | prevalently recognized

same assay, conditions: total spot-forming cells, LTBI donors, ex vivo IFN-γ ELISPOT

Row | Molecule | Total SFC [SFC]
119 | Rv0289: MTB protein, novel CD4 T cell antigen; Cell wall and cell processes, Island 1, Esx-3 | 2298
120 | Rv1243c: MTB protein, novel CD4 T cell antigen; PE/PPE | 114
121 | Rv2853: MTB protein, novel CD4 T cell antigen; PE/PPE | 85
122 | Rv3022c: MTB protein, novel CD4 T cell antigen; PE/PPE, Island 2 | 109
